Data taken from article PMC4190408, “Acylation of Glucagon-Like Peptide-2: Interaction with Lipid Membranes and In Vitro Intestinal Permeability” (PLoS ONE, 2014).
Side chains are listed from the residue outwards. Peptide text beside a SMILES is read from it. * marks the point of attachment. Palmitoyl = CCCCCCCCCCCCCCCC(=O)*; Lauroyl = CCCCCCCCCCCC(=O)*; Octanoyl = CCCCCCCC(=O)*; βAla = NCCC(=O)O

Test system: Caco-2 cells
Assay: Translocation across Caco-2 cell monolayers
Type: in vitro ADME, human
Conditions: for Caco-2 translocation relative to native GLP-2 (in words): Caco-2 monolayers
Method: Caco-2 cells (passage 40–65) were cultured routinely in DMEM with 10% (v/v) FBS, 1% (v/v) nonessential amino acids, 100 U penicillin, 0.1 mg/mL streptomycin and 2 mM L-glutamine. The Caco-2 cells were seeded at a density of [drawing 60] cells/well on 12 well Transwells plates and grown for 14–16 days in DMEM with media change every second day. The cell layer was confirmed to consist of a single monolayer of cells by fixing and staining the cell layer, and visualizing by fluorescence microscopy.
Before transport experiments, DMEM medium was changed to HBSS buffer (containing 10 mM HEPES and 0.1% (w/v) OVA; 0.4 mL apical side and 1 mL basolateral) and left to equilibrate for 60 minutes. Buffer was replaced apically by 0.4 mL test solution at time zero, and the plates were incubated at [drawing 61] and 5% [drawing 62] with gentle shaking. Test solutions contained 100 [drawing 63] peptide and 0.8 [drawing 64] [ [drawing 65] ]mannitol (a permeability marker). Basolateral samples of 200 [drawing 66] were taken every 15 minutes for 1 hour, and replaced by buffer. The apical test solution and basolateral samples were diluted and analyzed for peptide content with the luciferase assay and for [ [drawing 67] ]mannitol content in a scintillation counter (Packard TopCount), after mixing 1∶1 with scintillation fluid.
The integrity of cell monolayers before, during, and after experiments was verified by measuring the translocation of radioactively labelled mannitol and the transepithelial electrical resistance (TEER), using a Milicell ERS-2 epithelial volt-ohm meter (Millipore, USA). Mannitol translocation and TEER values were not affected by addition of peptide or analogues compared to buffer.
The Caco-2 translocation of peptide or mannitol over Caco-2 layers is expressed as the apparent permeability ( [drawing 72] ), given by: [drawing 73] (6) where [drawing 74] is the steady-state flux of peptide (pmol/s), [drawing 75] is the surface area of the cell monolayer (1.12 [drawing 76] ), and [drawing 77] is the initial sample concentration added to the cell layer.

[1] = apical to basolateral, 1 hour, no enhancer, 3 separate experiments each with 4 repeats

SMILES	Caco-2 translocation in the presence of SDS (in words) (Caco-2, apical to basolateral, SDS)	increase in peptide permeability with SDS compared to peptide alone (Caco-2, apical to basolateral, SDS (transcellular enhancer), 2 separate experiments each with 4 repeats)	Caco-2 translocation relative to native GLP-2 (in words) [1]	Caco-2 translocation with absorption enhancer, times the native peptide (Caco-2, apical to basolateral, in the presence of EGTA (paracellular) or SDS (transcellular), 2 separate experiments each with 4 repeats)	increase in Caco-2 translocation compared to native GLP-2 (factor) (Caco-2 monolayers 14-16 days, apical to basolateral, 100 (unit is a drawing) peptide, HBSS with 10 mM HEPES and 0.1% OVA, 1 hour, luciferase assay read-out, no enhancer, 3 separate experiments each with 4 repeats)
CCCCCCCCCCCCCCCC(=O)NCCC(=O)NCCCC[C@H](NC(=O)[C@H](CC(N)=O)NC(=O)[C@H](CC(=O)O)NC(=O)[C@H](CC(C)C)NC(=O)[C@@H](NC(=O)[C@@H](NC(=O)[C@H](CC(N)=O)NC(=O)[C@H](CCSC)NC(=O)[C@H](CCC(=O)O)NC(=O)[C@H](CC(=O)O)NC(=O)[C@H](CO)NC(=O)[C@H](Cc1ccccc1)NC(=O)[C@H](CO)NC(=O)CNC(=O)[C@H](CCC(=O)O)NC(=O)[C@H](C)NC(=O)[C@@H](N)Cc1c[nH]cn1)[C@@H](C)O)[C@@H](C)CC)C(=O)N[C@@H](C)C(=O)N[C@@H](C)C(=O)N[C@@H](CCCNC(=N)N)C(=O)N[C@@H](CC(=O)O)C(=O)N[C@@H](Cc1ccccc1)C(=O)N[C@H](C(=O)N[C@@H](CC(N)=O)C(=O)N[C@@H](Cc1c[nH]c2ccccc12)C(=O)N[C@@H](CC(C)C)C(=O)N[C@H](C(=O)N[C@@H](CCC(N)=O)C(=O)N[C@H](C(=O)N[C@@H](CCCNC(=N)N)C(=O)N[C@H](C(=O)N[C@H](C(=O)N[C@@H](CC(=O)O)C(=O)O)[C@@H](C)O)[C@@H](C)CC)[C@@H](C)O)[C@@H](C)CC)[C@@H](C)CC [c16] (H-HAEGSFSDEMNTILDNK([βAla-Palmitoyl])AARDFINWLIQTRITD-OH)	remains lower than for the c12 peptide	the increase is greater	decreases it slightly	–	–
CCCCCCCC(=O)NCCC(=O)NCCCC[C@H](NC(=O)[C@H](CC(N)=O)NC(=O)[C@H](CC(=O)O)NC(=O)[C@H](CC(C)C)NC(=O)[C@@H](NC(=O)[C@@H](NC(=O)[C@H](CC(N)=O)NC(=O)[C@H](CCSC)NC(=O)[C@H](CCC(=O)O)NC(=O)[C@H](CC(=O)O)NC(=O)[C@H](CO)NC(=O)[C@H](Cc1ccccc1)NC(=O)[C@H](CO)NC(=O)CNC(=O)[C@H](CCC(=O)O)NC(=O)[C@H](C)NC(=O)[C@@H](N)Cc1c[nH]cn1)[C@@H](C)O)[C@@H](C)CC)C(=O)N[C@@H](C)C(=O)N[C@@H](C)C(=O)N[C@@H](CCCNC(=N)N)C(=O)N[C@@H](CC(=O)O)C(=O)N[C@@H](Cc1ccccc1)C(=O)N[C@H](C(=O)N[C@@H](CC(N)=O)C(=O)N[C@@H](Cc1c[nH]c2ccccc12)C(=O)N[C@@H](CC(C)C)C(=O)N[C@H](C(=O)N[C@@H](CCC(N)=O)C(=O)N[C@H](C(=O)N[C@@H](CCCNC(=N)N)C(=O)N[C@H](C(=O)N[C@H](C(=O)N[C@@H](CC(=O)O)C(=O)O)[C@@H](C)O)[C@@H](C)CC)[C@@H](C)O)[C@@H](C)CC)[C@@H](C)CC [c8] (H-HAEGSFSDEMNTILDNK([βAla-Octanoyl])AARDFINWLIQTRITD-OH)	–	–	increase the translocation relative to native GLP-2	–	–
CCCCCCCCCCCC(=O)NCCC(=O)NCCCC[C@H](NC(=O)[C@H](CC(N)=O)NC(=O)[C@H](CC(=O)O)NC(=O)[C@H](CC(C)C)NC(=O)[C@@H](NC(=O)[C@@H](NC(=O)[C@H](CC(N)=O)NC(=O)[C@H](CCSC)NC(=O)[C@H](CCC(=O)O)NC(=O)[C@H](CC(=O)O)NC(=O)[C@H](CO)NC(=O)[C@H](Cc1ccccc1)NC(=O)[C@H](CO)NC(=O)CNC(=O)[C@H](CCC(=O)O)NC(=O)[C@H](C)NC(=O)[C@@H](N)Cc1c[nH]cn1)[C@@H](C)O)[C@@H](C)CC)C(=O)N[C@@H](C)C(=O)N[C@@H](C)C(=O)N[C@@H](CCCNC(=N)N)C(=O)N[C@@H](CC(=O)O)C(=O)N[C@@H](Cc1ccccc1)C(=O)N[C@H](C(=O)N[C@@H](CC(N)=O)C(=O)N[C@@H](Cc1c[nH]c2ccccc12)C(=O)N[C@@H](CC(C)C)C(=O)N[C@H](C(=O)N[C@@H](CCC(N)=O)C(=O)N[C@H](C(=O)N[C@@H](CCCNC(=N)N)C(=O)N[C@H](C(=O)N[C@H](C(=O)N[C@@H](CC(=O)O)C(=O)O)[C@@H](C)O)[C@@H](C)CC)[C@@H](C)O)[C@@H](C)CC)[C@@H](C)CC [c12] (H-HAEGSFSDEMNTILDNK([βAla-Lauroyl])AARDFINWLIQTRITD-OH)	–	–	increase the translocation relative to native GLP-2	approximately 1.5	~1.5
